Measured values from ChEMBL document CHEMBL5728348, “1 H-pyrazol-1-yl-thiazoles as inhibitors of lactate dehydrogenase and methods of use thereof” (2021).
pIC50: −log10 of the molar value.

assay: Biochemical Assay: Test compounds were placed in a Greiner Bio-One (Monroe, N.C.) 1536-well black solid bottom assay plate. 200 millimolar (mM) Tris HCl, pH 7.4, 100 micromolar (μM) EDTA and 0.01% TWEEN-20, final concentration, was used as the assay buffer. The LDHA reagent was 2 nanomolar (nM) Human LDHA (Meridian Life Science, Inc., Memphis, Tenn.), final concentration, in assay buffer. The substrate reagent was 0.06 mM NADH and 0.2 mM sodium pyruvate, final concentration, in assay buffer. The resazurin/diaphorase coupling reagent was 0.037 mM resazurin and 0.133 milligrams per milliliter (mg/mL) diaphorase, final concentration, in assay buffer. The inhibition of LDHA activity was measured by fluorescence emission.

Row | SMILES | pIC50 | IC50
1 | Cc1cc(C)c(C#Cc2cccc(-c3nn(-c4nc(C(=O)O)cs4)c(CC4CC4)c3Cc3ccc([SH+](N)[O-])c(F)c3)c2)s1 (stereo not drawn) | > 7.00 | 
2 | Cc1ccc(C#Cc2cccc(-c3nn(-c4nc(C(N)=O)cs4)c(CC4CC4)c3Cc3ccc([SH+](N)[O-])c(F)c3)c2)s1 (stereo not drawn) |  | in the range around 29000 nM
3 | N[SH+]([O-])c1ccc(Cc2c(-c3cccc(-c4cccc(Cl)c4)c3)nn(-c3nc(C(=O)O)cs3)c2CC2CC2)cc1F (stereo not drawn) | > 7.00 | 
4 | Cc1ncc(-c2cc(-c3nn(-c4nc(C(=O)O)cs4)c(CC4CC4)c3Cc3ccc([SH+](N)[O-])c(F)c3)ccc2F)[nH]1 (stereo not drawn) | > 7.00 | 
5 | Cc1ccsc1C#Cc1cccc(-c2nn(-c3nc(C(=O)O)cs3)c(CC3CC3)c2Cc2ccc([SH+](N)[O-])c(F)c2)c1 (stereo not drawn) | > 7.00 | 
6 | COc1ccc(-c2cc(-c3nn(-c4nc(C(=O)O)cs4)c(CC4CC4)c3Cc3ccc([SH+](N)[O-])c(F)c3)ccc2F)cc1C (stereo not drawn) | > 7.00 | 
7 | Cc1ccc(-c2cc(-c3nn(-c4nc(C(=O)O)cs4)c(CC4CC4)c3Cc3ccc([SH+](N)[O-])c(F)c3)ccc2F)cc1F (stereo not drawn) | > 7.00 | 
8 | CC(C)c1ccc(-c2cccc(-c3nn(-c4nc(C(=O)O)cs4)c(CC4CC4)c3Cc3ccc([SH+](N)[O-])c(F)c3)c2)cc1 (stereo not drawn) | > 7.00 | 
9 | N[SH+]([O-])c1ccc(Cc2c(-c3cccc(C#Cc4ccc(Cl)s4)c3)nn(-c3nc(C(=O)O)cs3)c2CC2CC2)cc1F (stereo not drawn) | > 7.00 | 
10 | N[SH+]([O-])c1ccc(Cc2c(-c3cccc(-c4cc(F)cc(F)c4)c3)nn(-c3nc(C(=O)O)cs3)c2CC2CC2)cc1F (stereo not drawn) | > 7.00 | 
11 | COC1CC=C(c2cc(-c3nn(-c4nc(C(=O)O)cs4)c(CC4CC4)c3Cc3ccc([SH+](N)[O-])c(F)c3)ccc2F)CC1 (stereo not drawn) | > 7.00 | 
12 | CC1CCCC=C1c1cc(-c2nn(-c3nc(C(=O)O)cs3)c(CC3CC3)c2Cc2ccc([SH+](N)[O-])c(F)c2)ccc1F (stereo not drawn) | > 7.00 | 
13 | Cc1ccc(C#Cc2cccc(-c3nn(-c4nc(C(=O)O)cs4)c(C4CC45CC5)c3Cc3ccc([SH+](N)[O-])c(F)c3)c2)s1 (stereo not drawn) | > 7.00 | 
14 | N[S+](=O)([O-])c1ccc(Cc2c(-c3ccc(F)c(-c4ncc[nH]4)c3)nn(-c3nc(C(=O)O)cs3)c2CC2CC2)cc1F | > 7.00 | 
15 | N[S+](=O)([O-])c1ccc(Cc2c(-c3ccc(F)c(-c4ccc(C(F)(F)F)cc4)c3)nn(-c3nc(C(=O)O)cs3)c2CC2CC2)cc1F | > 7.00 | 
16 | N[S+](=O)([O-])c1ccc(Cc2c(-c3ccc(F)c(-c4ccc(Cl)c(F)c4)c3)nn(-c3nc(C(=O)O)cs3)c2CC2CC2)cc1F | > 7.00 | 
17 | COc1cc(OC)cc(-c2cc(-c3nn(-c4nc(C(=O)O)cs4)c(CC4CC4)c3Cc3ccc([SH+](N)[O-])c(F)c3)ccc2F)c1 (stereo not drawn) | > 7.00 | 
18 | Cc1cc(-c2cccc(-c3nn(-c4nc(C(=O)O)cs4)c(CC4CC4)c3Cc3ccc([SH+](N)[O-])c(F)c3)c2)ccc1Cl (stereo not drawn) |  | in the range around 29000 nM
19 | CC(C)c1ccc(-c2cccc(-c3nn(-c4nc(C(=O)O)cs4)c(CCC4CC4)c3Cc3ccc([S+](N)(=O)[O-])c(F)c3)c2)cc1 |  | in the range around 550 nM
20 | NS(=O)(=O)c1ccc(Cc2c(-c3cccc(-c4nc5ccccc5[nH]4)c3)nn(-c3nc(C(=O)O)cs3)c2CC2CC2)cc1F | > 7.00 | 
21 | Cc1ccc(/C=C/c2cccc(-c3nn(-c4nc(C(=O)O)cs4)c(CC4CC4)c3Cc3ccc([SH+](N)[O-])c(F)c3)c2)s1 (stereo not drawn) | > 7.00 | 

Row | SMILES | pIC50 | IC50
22 | Cc1ccc(C#Cc2cccc(-c3nn(-c4nc(C(=O)NC#N)cs4)c(CC4CC4)c3Cc3ccc([SH+](N)[O-])c(F)c3)c2)s1 (stereo not drawn) |  | in the range around 29000 nM
23 | Cc1ccc(C#Cc2cccc(-c3nn(-c4nc(B(O)O)cs4)c(CC4CC4)c3Cc3ccc([SH+](N)[O-])c(F)c3)c2)s1 (stereo not drawn) |  | in the range around 29000 nM
24 | N[SH+]([O-])c1ccc(Cc2c(-c3cccc(C#Cc4ccc(C5CC5)s4)c3)nn(-c3nc(C(=O)O)cs3)c2CC2CC2)cc1F (stereo not drawn) |  | in the range around 550 nM
25 | N[SH+]([O-])c1ccc(Cc2c(-c3cccc(C#Cc4ccc(C(F)(F)F)s4)c3)nn(-c3nc(C(=O)O)cs3)c2CC2CC2)cc1F (stereo not drawn) |  | in the range around 550 nM
26 | N[S+](=O)([O-])c1ccc(Cc2c(-c3ccc(F)c(-c4cccc(Cl)c4)c3)nn(-c3nc(C(=O)O)cs3)c2CC2CC2)cc1F | > 7.00 | 
27 | N[S+](=O)([O-])c1ccc(Cc2c(-c3cccc(-c4ccc5c(c4)CCCC5)c3)nn(-c3nc(C(=O)O)cs3)c2CC2CC2)cc1F |  | in the range around 550 nM
28 | N[SH+]([O-])c1ccc(Cc2c(-c3cccc(-c4ccc(Cl)c(F)c4)c3)nn(-c3nc(C(=O)O)cs3)c2CC2CC2)cc1F (stereo not drawn) | > 7.00 | 
29 | N#Cc1ccc(-c2cccc(-c3nn(-c4nc(C(=O)O)cs4)c(CC4CC4)c3Cc3ccc([SH+](N)[O-])c(F)c3)c2)cc1 (stereo not drawn) | > 7.00 | 
30 | N[S+](=O)([O-])c1ccc(Cc2c(-c3ccc(F)c(-c4cc(Cl)cc(Cl)c4)c3)nn(-c3nc(C(=O)O)cs3)c2CC2CC2)cc1F |  | in the range around 550 nM
31 | Cc1ccc(C#Cc2cccc(-c3nn(-c4nc(C(=O)O)cs4)c(CC4CC4)c3Cc3ccc([SH+](N)[O-])c(F)c3)c2)s1 (stereo not drawn) | > 7.00 | 
32 | N[S+](=O)([O-])c1ccc(Cc2c(-c3cccc(-c4ccc(C(F)(F)C(F)(F)F)cc4)c3)nn(-c3nc(C(=O)O)cs3)c2CCC2CC2)cc1F |  | in the range around 550 nM
33 | Cc1cc(C)cc(-c2cc(-c3nn(-c4nc(C(=O)O)cs4)c(CC4CC4)c3Cc3ccc([SH+](N)[O-])c(F)c3)ccc2F)c1 (stereo not drawn) |  | in the range around 550 nM
34 | N[SH+]([O-])c1ccc(Cc2c(-c3cccc(C#Cc4ccc(C(F)F)s4)c3)nn(-c3nc(C(=O)O)cs3)c2CC2CC2)cc1F (stereo not drawn) | > 7.00 | 
35 | Cc1ccc(C#Cc2cccc(-c3nn(-c4nc(C(=O)O)cs4)c(CC4CC4)c3Cc3ccc([SH+](N)[O-])c(F)c3)c2)o1 (stereo not drawn) | > 7.00 | 
36 | CC(C)Cc1ccc(-c2cccc(-c3nn(-c4nc(C(=O)O)cs4)c(CCC4CC4)c3Cc3ccc([S+](N)(=O)[O-])c(F)c3)c2)cc1 |  | in the range around 550 nM
37 | Cc1ccc([C@H]2C[C@@H](c3cccc(-c4nn(-c5nc(C(=O)O)cs5)c(CC5CC5)c4Cc4ccc([SH+](N)[O-])c(F)c4)c3)C2)s1 (stereo partly drawn) | > 7.00 | 
38 | CC(C)c1cccc(-c2cccc(-c3nn(-c4nc(C(=O)O)cs4)c(CC4CC4)c3Cc3ccc([SH+](N)[O-])c(F)c3)c2)c1 (stereo not drawn) | > 7.00 | 
39 | CC(C)(C)c1ccc(C#Cc2cc(-c3nn(-c4nc(C(=O)O)cs4)c(CC4CC4)c3Cc3ccc([SH+](N)[O-])c(F)c3)ccc2F)s1 (stereo not drawn) |  | in the range around 550 nM
40 | N[S+](=O)([O-])c1ccc(Cc2c(-c3ccc(F)c(-c4nc5ccccc5[nH]4)c3)nn(-c3nc(C(=O)O)cs3)c2CC2CC2)cc1F | > 7.00 | 
41 | N[S+](=O)([O-])c1ccc(Cc2c(-c3ccc(F)c(C4=CCCCC4)c3)nn(-c3nc(C(=O)O)cs3)c2CC2CC2)cc1F | > 7.00 | 
42 | Cc1ccc(C#Cc2cc(-c3nn(-c4nc(C(=O)O)cs4)c(CCC4CC4)c3Cc3ccc([SH+](N)[O-])c(F)c3)ccc2F)s1 (stereo not drawn) | > 7.00 | 

Row | SMILES | pIC50 | IC50
43 | Cc1ccc(C#Cc2cccc(-c3nn(-c4nc(C(=O)O)cs4)c(CCC4CC4)c3Cc3ccc([SH+](N)[O-])c(F)c3)c2)s1 (stereo not drawn) | > 7.00 | 
44 | COc1ccc(-c2cccc(-c3nn(-c4nc(C(=O)O)cs4)c(CC4CC4)c3Cc3ccc([SH+](N)[O-])c(F)c3)c2)cc1Cl (stereo not drawn) |  | in the range around 550 nM
45 | CN(C)c1ccc(-c2cccc(-c3nn(-c4nc(C(=O)O)cs4)c(CC4CC4)c3Cc3ccc([SH+](N)[O-])c(F)c3)c2)cc1 (stereo not drawn) | > 7.00 | 
46 | Cc1cnc(C#Cc2cccc(-c3nn(-c4nc(C(=O)O)cs4)c(CC4CC4)c3Cc3ccc([SH+](N)[O-])c(F)c3)c2)o1 (stereo not drawn) | > 7.00 | 
47 | Cc1ncc(C#Cc2cc(-c3nn(-c4nc(C(=O)O)cs4)c(CC4CC4)c3Cc3ccc([SH+](N)[O-])c(F)c3)ccc2F)s1 (stereo not drawn) | > 7.00 | 
48 | Cc1ccc(C2CC2c2cccc(-c3nn(-c4nc(C(=O)O)cs4)c(CC4CC4)c3Cc3ccc([SH+](N)[O-])c(F)c3)c2)s1 (stereo not drawn) | > 7.00 | 
49 | Cc1ccc(C#Cc2cc(-c3nn(-c4nc(C(=O)O)cs4)c(CC4CC4)c3Cc3ccc([SH+](N)[O-])c(F)c3)ccc2F)s1 (stereo not drawn) | > 7.00 | 
50 | Cc1ccc(-c2cccc(-c3nn(-c4nc(C(=O)O)cs4)c(CC4CC4)c3Cc3ccc([SH+](N)[O-])c(F)c3)c2)cc1F (stereo not drawn) | > 7.00 | 
51 | CC(C)N1CC2(CN(c3cc(-c4nn(-c5nc(C(=O)O)cs5)c(CC5CC5)c4Cc4ccc([SH+](N)[O-])c(F)c4)ccc3F)C2)C1 (stereo not drawn) | > 7.00 | 
52 | CC(=O)c1cc(-c2nn(-c3nc(C(=O)O)cs3)c(CC3CC3)c2Cc2ccc([SH+](N)[O-])c(F)c2)ccc1F (stereo not drawn) | > 7.00 | 
53 | CC(C)c1ccc(C#Cc2cccc(-c3nn(-c4nc(C(=O)O)cs4)c(CC4CC4)c3Cc3ccc([SH+](N)[O-])c(F)c3)c2)s1 (stereo not drawn) |  | in the range around 550 nM
54 | N[S+](=O)([O-])c1ccc(Cc2c(-c3ccc(F)c(C4=Cc5ccccc5C4)c3)nn(-c3nc(C(=O)O)cs3)c2CC2CC2)cc1F | > 7.00 | 
55 | CC(C)(C)c1ccc(-c2cccc(-c3nn(-c4nc(C(=O)O)cs4)c(CC4CC4)c3Cc3ccc([SH+](N)[O-])c(F)c3)c2)cc1 (stereo not drawn) |  | in the range around 550 nM
56 | N[S+](=O)([O-])c1ccc(Cc2c(-c3ccc(F)c(-c4ccc5c(c4)CCCC5)c3)nn(-c3nc(C(=O)O)cs3)c2CC2CC2)cc1F | > 7.00 | 
57 | N[SH+]([O-])c1ccc(Cc2c(-c3ccc(F)c(C4=CCCO4)c3)nn(-c3nc(C(=O)O)cs3)c2CC2CC2)cc1F (stereo not drawn) | > 7.00 | 
58 | Cc1ccc(C#Cc2cccc(-c3nn(-c4nc(C(=O)O)cs4)c(CC4(C)CC4)c3Cc3ccc([SH+](N)[O-])c(F)c3)c2)s1 (stereo not drawn) | > 7.00 | 
59 | CC1(C)CC=C(c2cc(-c3nn(-c4nc(C(=O)O)cs4)c(CC4CC4)c3Cc3ccc([SH+](N)[O-])c(F)c3)ccc2F)CC1 (stereo not drawn) | > 7.00 | 
60 | CC1CC=C(c2cc(-c3nn(-c4nc(C(=O)O)cs4)c(CC4CC4)c3Cc3ccc([SH+](N)[O-])c(F)c3)ccc2F)CC1 (stereo not drawn) | > 7.00 | 
61 | N[S+](=O)([O-])c1ccc(Cc2c(-c3ccc(F)c(-c4ccc(Cl)cc4)c3)nn(-c3nc(C(=O)O)cs3)c2CC2CC2)cc1F | > 7.00 | 
62 | Cc1cnc(C#Cc2cc(-c3nn(-c4nc(C(=O)O)cs4)c(CC4CC4)c3Cc3ccc([SH+](N)[O-])c(F)c3)ccc2F)s1 (stereo not drawn) | > 7.00 | 
63 | N[S+](=O)([O-])c1ccc(Cc2c(-c3ccc(F)c(-c4cc(F)cc(F)c4)c3)nn(-c3nc(C(=O)O)cs3)c2CC2CC2)cc1F | > 7.00 | 
